Legend:
CBP bromodomain = target: T1, CBP bromodomain (Homo sapiens, UniProt Q92793); assay: CBP bromodomain binding assay (TR-FRET); conditions: TR-FRET (Cayman kit 600850), 1 hour incubation at room temperature; read-out: Assay 2
T1 construct: purchased Cayman chemicals 600850
Method: CBP Bromodomain Binding Assay (TR-FRET)
Compounds solutions of 10 mM in DMSO were pre-diluted in DSMO to 25× stock solutions in DMSO. These were then diluted down to 4× in assay buffer. A dilution series in assay buffer was performed keeping the DMSO concentration stable. 5 μl compound in assay buffer was transferred into the assay plate (provided by assay kit) and the TR-FRET assay Cayman chemicals; 600850) was performed using the provider's instructions. After 1 hour incubation at room temperature in the darks, assay plates were read in a Tecan M1000 plate reader or a Tecan Sparks reader using the TR-FRET mode (top read; excitation 340 nm bandwidth 20 nM; emission 620 nm bandwidth 7 nM; gain optimal determined for the first well, number of flashes: 5; flash frequency 100 Hz; integration time: 500 μs, lag time: 100 μs, room temperature). The TR-FRET ratio was calculated by dividing 670 nm emission by 620 nm emission. Values were log transformed and non-linear regression with variable slope (4 parameters) was used to fit values to a dose-response curve to evaluate EC50 values.

[1] = tested on: multiple myeloma cell line OPM-2; assay: Multiple myeloma cellular efficacy (PrestoBlue cell proliferation/survival assay); type: cell-based; conditions: Homo sapiens, 96 h; OPM-2 cells, 4 days treatment, PrestoBlue signal relative to vehicle; read-out: Assay 1
Method: Multiple Myeloma Cellular Efficacy:
10000 OPM-2 (ACC50; DSMZ) were plated into wells of a 384 well plate (Greiner 781090). Cells were treated for 4 days with a dose range of compound or vehicle. At the end of the experiment cells were stained directly with PrestoBlue (ThermoFisher Scientific; A13262) for 2 hours at 37° C. in a humidified incubator according to manufactor's instruction. To assess the relative cell number the PrestoBlue signal was measured using either a TecanM1000Pro reader or a Tecan Sparks reader following the manufactor's instructions. Background (no cells) values were subtracted and set in relation to the vehicle control. To assess the EC50 of each compound the relative fluorescence value was plotted against the compound concentration after log transformation. Data were fitted in a nonlinear manner with a variable slope (four parameters) using graphpad prism software. Cellular efficacy of compounds was evaluated in the multiple myeloma cell line OPM-2 using the cell proliferation/survival assay PrestoBlue. EC50 values are classified as indicated below.

T1 sequence (Q92793 1085-1192 limits assumed): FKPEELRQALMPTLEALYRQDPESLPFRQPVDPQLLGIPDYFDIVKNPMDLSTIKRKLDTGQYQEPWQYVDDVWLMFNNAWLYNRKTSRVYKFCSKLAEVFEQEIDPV

EC50 (CBP bromodomain) [nM]	SMILES	EC50 [1] [nM]
7	CC(=O)N1C[C@H](c2nc(Nc3cc(F)cc(-c4cn(C)cn4)c3)cc(-c3cnccn3)n2)CC[C@@H]1C [Compound 001, 1-((2S,5R)-5-(4-((3-fluoro-5-(1-methyl-1H-imidazol-4-yl)phenyl)amino)-6-(pyrazin-2-yl)pyrimidin-2-yl)-2-methylpiperidin-1-yl)ethan-1-one]	1
128	CC(=O)N1C[C@H](c2nc(Nc3cccc(-c4cn(C)nc4C)c3)cc(-c3cnccn3)n2)CC[C@@H]1C [Compound 004]	
	CC(=O)N1C[C@H](c2nc(Nc3cccc(-c4cnn(C)c4C)c3)cc(-c3cnccn3)n2)CC[C@@H]1C [Compound 005]	193
3	CC(=O)N1C[C@H](c2nc(Nc3cc(F)cc(-c4nnc(C)o4)c3)cc(-c3cnccn3)n2)CC[C@@H]1C [Compound 006, 1-((2S,5R)-5-(4-((3-fluoro-5-(5-methyl-1,3,4-oxadiazol-2-yl)phenyl)amino)-6-(pyrazin-2-yl)pyrimidin-2-yl)-2-methylpiperidin-1-yl)ethan-1-one]	6
	CC(=O)N1C[C@H](c2nc(Nc3cccc(-c4cn(C(C)C)nn4)c3)cc(-c3cnccn3)n2)CC[C@@H]1C [Compound 007, 1-((2S,5R)-5-(4-((3-(1-isopropyl-1H-1,2,3-triazol-4-yl)phenyl)amino)-6-(pyrazin-2-yl)pyrimidin-2-yl)-2-methylpiperidin-1-yl)ethan-1-one]	50
	CC(=O)N1C[C@H](c2nc(Nc3cccc(-c4cn(C5COC5)nn4)c3)cc(-c3cnccn3)n2)CC[C@@H]1C [Compound 008]	28
	CC(=O)N1C[C@H](c2nc(Nc3cc(F)cc(-c4c[nH]nn4)c3)cc(-c3cnccn3)n2)CC[C@@H]1C [Compound 009, 1-((2S,5R)-5-(4-((3-fluoro-5-(1H-1,2,3-triazol-4-yl)phenyl)amino)-6-(pyrazin-2-yl)pyrimidin-2-yl)-2-methylpiperidin-1-yl)ethan-1-one]	37
	CC(=O)N1C[C@H](c2nc(Nc3cc(Cl)cc(-c4c[nH]nn4)c3)cc(-c3cnccn3)n2)CC[C@@H]1C [Compound 010, 1-((2S,5R)-5-(4-((3-chloro-5-(1H-1,2,3-triazol-4-yl)phenyl)amino)-6-(pyrazin-2-yl)pyrimidin-2-yl)-2-methylpiperidin-1-yl)ethan-1-one]	45
	CCn1cc(-c2cccc(Nc3cc(-c4cnccn4)nc([C@@H]4CC[C@H](C)N(C(C)=O)C4)n3)c2)nn1 [Compound 011, 1-((2S,5R)-5-(4-((3-(1-ethyl-1H-1,2,3-triazol-4-yl)phenyl)amino)-6-(pyrazin-2-yl)pyrimidin-2-yl)-2-methylpiperidin-1-yl)ethan-1-one]	6
	CC(=O)N1C[C@H](c2nc(Nc3ccc(C)c(-c4cn(C)nn4)c3)cc(-c3cnccn3)n2)CC[C@@H]1C [Compound 012, 1-((2S,5R)-2-methyl-5-(4-((4-methyl-3-(1-methyl-1H-1,2,3-triazol-4-yl)phenyl)amino)-6-(pyrazin-2-yl)pyrimidin-2-yl)piperidin-1-yl)ethan-1-one]	261
	CC(=O)N1C[C@H](c2nc(Nc3cccc(-c4cn(C)nn4)c3C)cc(-c3cnccn3)n2)CC[C@@H]1C [Compound 013]	32
	CC(=O)N1C[C@H](c2nc(Nc3cccc(-c4nnn(C)c4C)c3)cc(-c3cnccn3)n2)CC[C@@H]1C [Compound 015, 1-((2S,5R)-5-(4-((3-(1,5-dimethyl-1H-1,2,3-triazol-4-yl)phenyl)amino)-6-(pyrazin-2-yl)pyrimidin-2-yl)-2-methylpiperidin-1-yl)ethan-1-one]	109
	CC(=O)N1C[C@H](c2nc(Nc3cccc(-c4nn(C)nc4C)c3)cc(-c3cnccn3)n2)CC[C@@H]1C [Compound 016, 1-((2S,5R)-5-(4-((3-(2,5-dimethyl-2H-1,2,3-triazol-4-yl)phenyl)amino)-6-(pyrazin-2-yl)pyrimidin-2-yl)-2-methylpiperidin-1-yl)ethan-1-one]	142
	CC(=O)N1C[C@H](c2nc(Nc3cccc(-c4cnnn4C)c3)cc(-c3cnccn3)n2)CC[C@@H]1C [Compound 017, 1-((2S,5R)-2-methyl-5-(4-((3-(1-methyl-1H-1,2,3-triazol-5-yl)phenyl)amino)-6-(pyrazin-2-yl)pyrimidin-2-yl)piperidin-1-yl)ethan-1-one]	458
22	CC(=O)N1C[C@H](c2nc(Nc3ccc(F)c(-c4cn(C)nn4)c3)cc(-c3cnccn3)n2)CC[C@@H]1C [Compound 018, 1-((2S,5R)-5-(4-((4-fluoro-3-(1-methyl-1H-1,2,3-triazol-4-yl)phenyl)amino)-6-(pyrazin-2-yl)pyrimidin-2-yl)-2-methylpiperidin-1-yl)ethan-1-one]	63
6	CC(=O)N1C[C@H](c2nc(Nc3cccc(-c4cn(C)nn4)c3F)cc(-c3cnccn3)n2)CC[C@@H]1C [Compound 019, 1-((2S,5R)-5-(4-((2-fluoro-3-(1-methyl-1H-1,2,3-triazol-4-yl)phenyl)amino)-6-(pyrazin-2-yl)pyrimidin-2-yl)-2-methylpiperidin-1-yl)ethan-1-one]	1
	CC(=O)N1C[C@H](c2nc(Nc3cc(-c4cn(C)nn4)ccc3F)cc(-c3cnccn3)n2)CC[C@@H]1C [Compound 020]	864
	CC(=O)N1C[C@H](c2nc(Nc3cc(Cl)cc(-c4cn(C)nn4)c3)cc(-c3cnccn3)n2)CC[C@@H]1C [Compound 021, 1-((2S,5R)-5-(4-((3-chloro-5-(1-methyl-1H-1,2,3-triazol-4-yl)phenyl)amino)-6-(pyrazin-2-yl)pyrimidin-2-yl)-2-methylpiperidin-1-yl)ethan-1-one]	5
	CC(=O)N1C[C@H](c2nc(Nc3cc(F)cc(-c4cn(C5COC5)nn4)c3)cc(-c3cnccn3)n2)CC[C@@H]1C [Compound 022, 1-((2S,5R)-5-(4-((3-fluoro-5-(1-(oxetan-3-yl)-1H-1,2,3-triazol-4-yl)phenyl)amino)-6-(pyrazin-2-yl)pyrimidin-2-yl)-2-methylpiperidin-1-yl)ethan-1-one]	13
65	CC(=O)N1C[C@H](c2nc(Nc3cccc(-c4cn(C5COC5)nn4)c3F)cc(-c3cnccn3)n2)CC[C@@H]1C [Compound 023]	7

SMILES	EC50 (CBP bromodomain) [nM]	EC50 [1] [nM]
CC(=O)N1C[C@H](c2nc(Nc3cc(F)cc(-c4cn[nH]c4)c3)cc(-c3cnccn3)n2)CC[C@@H]1C [Compound 002, 1-((2S,5R)-5-(4-((3-fluoro-5-(1H-pyrazol-4-yl)phenyl)amino)-6-(pyrazin-2-yl)pyrimidin-2-yl)-2-methylpiperidin-1-yl)ethan-1-one]	23	25
CC(=O)N1C[C@H](c2nc(Nc3cc(C)cc(-c4cn(C)nn4)c3)cc(-c3cnccn3)n2)CC[C@@H]1C [Compound 014, 1-((2S,5R)-2-methyl-5-(4-((3-methyl-5-(1-methyl-1H-1,2,3-triazol-4-yl)phenyl)amino)-6-(pyrazin-2-yl)pyrimidin-2-yl)piperidin-1-yl)ethan-1-one]	7	5

Reference: patent publication US12595258B2, “Heterocyclic derivatives, pharmaceutical compositions and their use in the treatment or amelioration of cancer” (TOLREMO THERAPEUTICS AG, priority 2022, dated 2026)
